Values quoted from earlier work, collected in patent US12276869B1, “WS12-releasing contact lens” (CooperVision International Limited, priority 2022, dated 2025).

Details: incorporated into silicone hydrogel contact lenses

COc1ccc(NC(=O)C2CC(C)CCC2C(C)C)cc1 (stereo not shown) [WS12, N-(4-Methoxyphenyl)-5-methyl-2-(1-methylethyl)cyclohexanecarboxamide]
stability to autoclave sterilization in silicone hydrogel contact lenses: withstand autoclave sterilization without degradation or leaching into the packaging solution
